Laboratory results: ChEMBL document CHEMBL1131242, “6beta-Acetoxynortropane: a potent muscarinic agonist with apparent selectivity toward M2-receptors” (J Med Chem, 1998)

Legend:
[1] = target: Muscarinic acetylcholine receptor M1 (Homo sapiens) (UniProt P11229); experiment: Inhibition of binding of [3H]quinuclidinyl benzilate to human Muscarinic acetylcholine receptor M1 in membranes of transfected CHO cells at 300 uM concentration; conditions: Membrane
[2] = target: Muscarinic acetylcholine receptor M3 (Homo sapiens, UniProt P20309); experiment: Inhibition of binding of [3H]quinuclidinyl benzilate to human Muscarinic acetylcholine receptor M3 in membranes of transfected CHO cells at 100 uM concentration; conditions: Membrane
Sequence of Muscarinic acetylcholine receptor M3 (P20309 whole entry, looked up): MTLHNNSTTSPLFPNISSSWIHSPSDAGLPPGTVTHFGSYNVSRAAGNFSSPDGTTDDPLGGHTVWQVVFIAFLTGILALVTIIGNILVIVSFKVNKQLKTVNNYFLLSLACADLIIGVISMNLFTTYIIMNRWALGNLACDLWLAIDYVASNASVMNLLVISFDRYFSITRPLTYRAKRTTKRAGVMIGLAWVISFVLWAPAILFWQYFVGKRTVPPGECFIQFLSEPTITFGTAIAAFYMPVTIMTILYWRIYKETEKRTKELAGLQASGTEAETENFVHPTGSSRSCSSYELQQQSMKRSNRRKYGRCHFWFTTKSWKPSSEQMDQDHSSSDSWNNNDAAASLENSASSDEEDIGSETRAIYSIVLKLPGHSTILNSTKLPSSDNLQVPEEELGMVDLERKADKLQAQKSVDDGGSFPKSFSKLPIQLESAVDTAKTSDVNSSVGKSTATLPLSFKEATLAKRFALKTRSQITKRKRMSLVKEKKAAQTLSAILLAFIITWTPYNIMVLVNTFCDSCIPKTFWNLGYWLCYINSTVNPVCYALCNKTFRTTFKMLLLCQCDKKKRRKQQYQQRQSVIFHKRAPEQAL

Sequence of Muscarinic acetylcholine receptor M1 (Homo sapiens) (P11229 whole entry, looked up): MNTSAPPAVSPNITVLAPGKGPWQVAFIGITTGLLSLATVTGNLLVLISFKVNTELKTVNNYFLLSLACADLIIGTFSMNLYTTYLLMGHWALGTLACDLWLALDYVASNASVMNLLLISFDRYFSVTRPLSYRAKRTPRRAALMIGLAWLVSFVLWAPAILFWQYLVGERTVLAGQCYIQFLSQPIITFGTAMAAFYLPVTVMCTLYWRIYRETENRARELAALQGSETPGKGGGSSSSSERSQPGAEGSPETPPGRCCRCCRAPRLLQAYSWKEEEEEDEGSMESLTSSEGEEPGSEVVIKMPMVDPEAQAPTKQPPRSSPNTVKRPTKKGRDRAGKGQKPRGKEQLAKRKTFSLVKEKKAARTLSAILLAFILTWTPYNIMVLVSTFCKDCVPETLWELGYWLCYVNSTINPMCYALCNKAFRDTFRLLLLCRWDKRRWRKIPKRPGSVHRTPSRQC

CC(=O)OC(C)C[N+](C)(C)C (configuration not stated) [METHACHOLINE] showed an inhibition [1] of 8% and an inhibition [2] of 34%.
